Source: patent US8569017B2, “Method for the preventing and/or treating IL-1 beta lung pathology in mammals by administering a uric acid reducing compound” (Centre National de la Recheche Scientifique (CNRS), priority 2008, dated 2013)
“Also recorded” adds a separate entry of the source.

Legend:
[1] = tested on: lung inflammation upon intranasal crystals; test: Exogenous uric acid crystals-induced lung inflammation and remodeling in mice; type: in vivo
Experimental: (§1) Bleomycin sulfate (200-300 μg or 10-15 mg/kg) from Bellon Laboratories (Montrouge, France) in saline, uric acid or allopurinol crystals (100-1000 μg or 5-50 mg/kg) in saline or saline alone are given through the airways by nasal instillation in a volume of 40 μt, under light ketamine-xylasine anaesthesia. The number of cells, chemokines, cytokines and TIMP-1 in the bronchoalveolar space and in the lung were evaluated as described (3). Allopurinol (Sigma-Aldrich) was injected at 500 μg or 25 mg/kg subcutaneously in 0.1-ml sterile NaCl, uricase (Fasturtec, Sanofi Synthelabo) given at 4 μg or 0.2 mg/kg by nasal instillation in 40 μt, at the time of bleomycin administration, at 6 and 9 h. In some experiments, the IL-1Ra (Anakinra, Amgen) was injected at 200 μg or 10 mg/kg subcutaneously in 0.1-ml sterile NaCl, at the time of MSU crystals administration, at 2 and 4 h.
Uric acid or allopurinol crystals were obtained by dissolving 1.68 mg of powder in 0.01 M NaOH preheated to 70° C. and added as required to maintain pH between 7.1 and 7.2. The solution was filtered and incubated at room temperature under slowly and continuously agitation, until crystals have formed. Crystals were washed twice with ethanol 100%, dried, autoclaved and kept sterile. The weight of dry crystals was determined under sterile conditions, crystals are resuspended in PBS by sonication and examined under phase microscopy.
(§2) Bleomycin sulfate (10 mg/kg) from Bellon Laboratories, uric acid or allopurinol crystals (5-50 mg/kg) in saline or vehicle alone were administered by intranasal instillation under light ketamine-xylasine anesthesia, and BAL and lung tissue assayed after 6 h (for uric acid crystal) or 24 h (for bleomycin) for markers of inflammation including cell recruitment and in particular neutrophil influx, chemokine and cytokine levels including KC, IL-6 and IL-1β and 14 days later for markers of tissue remodeling such as gelatinases MMP9 and MMP2 and their inhibitor TIMP-1. […] IL-1Ra (Anakinra, Amgen) was injected at 10 mg/kg subcutaneously.
(§3) After incision of the trachea, a plastic cannula was inserted and airspaces were washed using […] of PBS solution, heated to 37° C. The rib cage was then gently massaged to enable maximum cell collection. The fluid was collected by careful aspiration. […] The samples collected were dispatched in 2 fractions: the first one (1 ml corresponding to the 2 first lavages) was used for mediator measurement and the second one for the cell determination (4 ml). The first fraction was centrifuged (600 g for 10 min) and supernatant was fractionated and kept at −80° C. until mediator determination. The cell pellet was then resuspended in 0.4 ml PBS and, pooled with the second fraction and maintained at 4° C. until cell determination.
(§4) Total cell count was determined in BAL fluid using a particle counter (Z2 Coulter, Beckman Coulter). Differential cell counts were performed on cytospin preparations (Cytospin 3, Thermo Shandon) after staining with 4 min May-Grünwald stain (MG-1L, Sigma chemical, Saint Louis, USA) and 8 min in 95% Giemsa stain (GS-500, Sigma chemical, Saint Louis, USA). Differential cell counts were made on 100 cells using standard morphological criteria.
(§5) IL-1β, KC, IL-6 and TIMP-1 levels in BAL fluid or lung homogenate were determined using ELISA assay kits according to manufacturer's instructions (Mouse DuoSet, R&D system, Minneapolis, USA).

[2] = tested on: bleomycin-induced lung inflammation; test: Bleomycin-induced acute lung inflammation in mice (24 h); type: in vivo; settings: for Uric acid levels in lung: allopurinol 25 mg/kg s.c. or uricase 0.2 mg/kg i.p. or i.n. at 0, 6 and 9 h; for Neutrophil recruitment in BALF / IL-1β production in lung: allopurinol 25 mg/kg s.c.; for Neutrophil recruitment in BALF: uricase 0.2 mg/kg (0, 6, 9 h) or z-YVAD-fmk 10 mg/kg i.p. (0, 4, 8 h); for Bleomycin-induced (acute) inflammation, overall: 24 h after BLM i.n., treated vs vehicle; for Efficacy, repeated administrations versus higher doses: dose optimisation; for KC production in lung / TIMP-1 production in lung / IL-1β production in lung: lung homogenates 24 h after BLM 10 mg/kg i.n.; for KC production in lung / TIMP-1 production in lung: allopurinol 25 mg/kg s.c. or z-YVAD-fmk 10 mg/kg i.p.; for IL-1β production in lung: uricase 0.2 mg/kg or z-YVAD-fmk 10 mg/kg i.p.
Experimental: as §1, §2, §3
After BAL was performed, the whole lung removed and placed inside a microtube (Lysing matrix D, Q Bio Gene, Illkrich, France) with 1 ml of PBS, total lung tissue extract was prepared using a Fastprep® system (FP120, Q Bio Gene, Illkrich, France), the extract was then centrifuged and the supernatant stored at −80° C. before mediator measurement, MPO or collagen assay with Sircol Collagen Assay (France Biochem Division, France).
as §4, §5
Uric acid concentration was determined in bronchoalveolar lavages and lung homogenates using Amplex® Red Uric Acid/Uricase Assay Kit (Molecular Probe, Eugene). Briefly, uricase catalyzes the conversion of uric acid to allantoin, hydrogen peroxide (H2O2) and carbon dioxide. In the presence of horseradish peroxidase (HRP), H2O2 reacts stoichiometrically with Amplex Red reagent to generate the red-fluorescent oxidation product, resorufin, measured spectrophotometrically.

[3] = tested on: bleomycin-induced repair and fibrosis; test: Bleomycin-induced late inflammation, repair and fibrosis in mice (day 8/14); type: in vivo; settings: for Lung fibrotic score (fibrosis with thickening of alveolar septae and inflammation, semi-quantitative) / Alveolar wall destruction, collagen deposition and lung fibrosis on lung sections / Pro-MMP-9 and active MMP-2 gelatinase activities in BALF (zymography) / Pulmonary alpha-I collagen mRNA content: day 14 after BLM 5 mg/kg i.n.; for Lung fibrotic score (fibrosis with thickening of alveolar septae and inflammation, semi-quantitative): Ashcroft score, two observers, vs B6 mice; for Alveolar wall destruction, collagen deposition and lung fibrosis on lung sections: CAB staining; for Pro-MMP-9 and active MMP-2 gelatinase activities in BALF (zymography): allopurinol 15 mg/kg s.c. or uricase 0.2 mg/kg i.p.; for Pulmonary alpha-I collagen mRNA content: real time quantitative PCR
Experimental: Mice were injected at day 0 with allopurinol (15 mg/kg, s.c.), uricase (0.2 mg/kg, i.p.) or saline, at 0, 6 and 9 h after BLM instillation (5 mg/kg, i.n.) and every second days during 8 or 14 days to evaluate remodeling and fibrosis. (A) Late inflammation measured as lymphocytes and neutrophils in the BALF at day 8. […] (D) Alpha1 (I) collagen I mRNA in lung was analyzed by real time quantitative polymerase chain reaction (PCR) amplification after uricase or allopurinol treatment 14 days after BLM administration. […] Chromotrope Aniline Blue (CAB) staining, 20× and 200× magnification. (F) The lesions induced by bleomycin were assessed semi-quantitatively by two pathologists as described (see Materials and methods). […] Results are expressed as mean lung fibrotic score±SD. Data represent mean values±SD from 3 independent experiments (n=6 mice per group).
as §2, §5
MMP-2 and MMP-9 levels were determined by gelatin zymography. Briefly, non-reduced supernatant samples of BAL fluid (15 μl) and standards (161-0305, Bio-Rad, Hercule, USA) were loaded onto 7% polyacrylamide gels (wt/vol) incorporating 0.1% (wt/vol) gelatin substrate. The MMP in the gelatinolytic bands were evaluated using as references recombinant murine Pro-MMP-9 (100 Kd) and recombinant murine Pro-MMP-2 (72 Kd). Proteins were subjected to electrophoresis at 20-30 mA for 3 h. The gel was then washed twice in 2.5% Triton (vol/vol), rinsed 3 times quickly with distillated water, and placed 3 times for 20 min in distillated water. Each different wash was performed under gentle stirring. Gels were incubated overnight at 37° C. in 50 mM Tris buffer (containing 5 mM CaCl2 and 2 μM ZnCL2). […] Only these MMP were quantified.
Quantification of alpha-I collagen was described previously (26). Briefly, frozen lung samples were ground to a fine powder, and homogenized in 2 ml of Trizol reagent (In vitrogen Life technology, Paisley, UK). After vigorous shaking, chloroform was added and the samples were centrifuged at 12,000 g for 20 min. Total RNA was precipitated with isopropanol and dissolved in RNAse-free water. RNAs were reverse-transcribed into cDNA using SuperScript™^II (Invitrogen Life technologies, Paisley, UK). Real-time quantitative PCR was performed by fluorescent dye SYBR Green methodology, using SYBR Green PCR Master Mix (Applied Biosystems) and the ABI Prism 7000 apparatus (perkin-Elmer, Foster city, CA, USA).
After BAL and lung perfusion, the large lobe was fixed in 4% buffered formaldehyde for standard microscopic analysis. 3-μm sections were stained with Hematoxylin and Eosin (H&E) or Chromotrope Aniline Blue (CAB) as described previously (3). The severity of the morphological changes (infiltration by neutrophils and mononuclear cells, destruction and thickening of the alveolar septae and fibrosis) were assessed semi-quantitatively using a numeric fibrotic scale (Ashcroft score) (27).

[4] = tested on: bleomycin-induced lung inflammation; settings: IL-1 receptor antagonist; published data (ref. 3), FIG. 1; cited from earlier work
[5] = 24 h after BLM 10 mg/kg i.n., vs vehicle
[6] = crystals 15 mg/kg i.n., kinetics

Row | Molecule | Uric acid levels in lung [2, 5] | Neutrophil recruitment in BALF [2, 5] | Bleomycin-induced (acute) inflammation, overall [2] | Efficacy, repeated administrations versus higher doses ([2]; data not shown) | KC production in lung ([2]; vs vehicle) | TIMP-1 production in lung ([2]; vs vehicle) | IL-1β production in lung ([2]; vs vehicle) | Lung fibrotic score (fibrosis with thickening of alveolar septae and inflammation, semi-quantitative) [3] | Alveolar wall destruction, collagen deposition and lung fibrosis on lung sections [3] | Pro-MMP-9 and active MMP-2 gelatinase activities in BALF (zymography) [3] | Pulmonary alpha-I collagen mRNA content [3] | further results
1 | Oc1ncnc2[nH]ncc12 [allopurinol crystals, allopurinol] | – | – | – | – | – | – | – | – | – | – | – | Neutrophil recruitment into the BALF ([1]; 6 h after crystals instillation 15 mg/kg i.n.): only little neutrophil recruitment
2 | Oc1ncnc2[nH]ncc12 [allopurinol] | prevented the increase; also recorded: prevented uric acid increases | reduced | greatly inhibited | repeated administrations were more effective than higher doses | diminished | diminished | diminished | significantly reduced | significantly reduced | significantly reduced and less | inhibited | Total cell counts in BALF ([2]; 24 h after BLM 10 mg/kg i.n., allopurinol 25 mg/kg s.c. at 0, 6 and 9 h, vs vehicle): reduced; IL-1β, KC and TIMP-1 in the BALF ([2]; after BLM, allopurinol treatment, data not shown): diminished; KC production in lung ([2]; vs vehicle, listed as Allopurinol): reduced; Late lymphocyte and neutrophil recruitment in the BALF ([3]; day 8 after BLM 5 mg/kg i.n., allopurinol 15 mg/kg s.c. at 0, 6, 9 h and every second day): reduced; Late production of TIMP-1 in lung homogenates and BALF ([3]; day 8 after BLM 5 mg/kg i.n., allopurinol 15 mg/kg s.c., BALF data not shown): inhibited
3 | O=c1[nH]c(=O)c2[nH]c(=O)[nH]c2[nH]1 [uric acid crystals, uric acid] | – | – | – | – | – | – | – | – | – | – | – | Time at which inflammation was resolved [1, 6]: 14 days; Time of maximum of inflammation (cell recruitment in BALF) [1, 6]: 6 h; Pulmonary TIMP-1 at day 14 ([1]; day 14 after crystals, data not shown): returned to basal levels; Cell recruitment in BALF (macrophages, neutrophils) ([1]; intranasal crystals, dose response): dose-dependent cell recruitment; Pulmonary TIMP-1 ([1]; lung homogenates after i.n. increasing doses of crystals): induced pulmonary TIMP-1 expression; also recorded: dose-dependently induced
4 | Anakinra: IL-1 receptor antagonist, IL-1Ra (Anakinra, Amgen) | – | – | – | – | – | – | – | – | – | – | – | Bleomycin-induced lung inflammation, overall [4]: attenuated; Inflammatory response to uric acid crystals (neutrophil influx in BAL) ([1]; 6 h after UA crystals 15 mg/kg i.n., anakinra 10 mg/kg): drastically reduced
5 | z-YVAD-fmk | – | reduced | reduced | – | reduced | reduced | reduced | – | – | – | – | –
6 | uricase: recombinant enzyme uricase (Fasturtec, Sanofi Synthelabo), degrades uric acid into soluble allantoin (protein, UniProt Q00511 2-302, looked up) Uricase: SAVKAARYGKDNVRVYKVHKDEKTGVQTVYEMTVCVLLEGEIETSYTKADNSVIVATDSIKNTIYITAKQNPVTPPELFGSILGTHFIEKYNHIHAAHVNIVCHRWTRMDIDGKPHPHSFIRDSEEKRNVQVDVVEGKGIDIKSSLSGLTVLKSTNSQFWGFLRDEYTTLKETWDRILSTDVDATWQWKNFSGLQEVRSHVPKFDATWATAREVTLKTFAEDNSASVQATMYKMAEQILARQQLIETVEYSLPNKHYFEIDLSWHKGLQNTGKNAEVFAPQSDPNGLIKCTVGRSSLKSKL | reduced | reduced | – | repeated administrations were more effective than higher doses | – | – | reduced | significantly reduced | significantly reduced | significantly reduced and less | inhibited | –
